{
  "source": "paper PMC10001324",
  "about": "“Differential Effects of Nonsteroidal Anti-Inflammatory Drugs in an In Vitro Model of Human Leaky Gut” (Cells, 2023)",
  "key": {"IL-8": {"tested_on": "IL-8", "details": "Caco-2, EtOH exposure 6% for 24 h; control 82.4 ± 0.44 pg/mL"}, "TNF-α": {"tested_on": "TNF-α", "details": "Caco-2, EtOH exposure 6% for 24 h; control 10.8 ± 1.3 pg/mL"}, "[1]": {"experiment": "Log P / LogD7.4 by pH-metric titration in octanol (SiriusT3)", "type": "physicochemical", "details": "for logD: pH 7.4; for logP: SiriusT3, octanol", "method": "(§1) The major physicochemical properties of the drugs were determined using the SiriusT3 apparatus (Sirius Analytical Instruments Ltd., East Sussex, UK) equipped with an Ag/AgCl double junction reference pH electrode, a Sirius D-PAS spectrometer, and a turbidity sensing device. The pH electrode was calibrated titrimetrically in the pH range 1.8–12.2 as previously described. The pKas were defined by the potentiometric method by pH-metric titration. The powder (around 0.5 mg) was diluted in 1.5 mL of ISA water and the titration was analyzed in triplicate in the pH range 2.0–12.0."}, "physchem": {"experiment": "physchem", "details": "water", "method": "as §1"}, "Caco-2 cells [2]": {"tested_on": "Caco-2 cells", "experiment": "Transepithelial electrical resistance (TEER), EtOH-stressed Caco-2", "type": "cell-based, human", "details": "Caco-2 20 DIV, 6% EtOH 24 h then 0.25, 0.5, 1 mM for 72 h"}, "COX-1": {"tested_on": "COX-1", "details": "human blood, cited from earlier work"}, "IKBα/4-HNE adducts": {"tested_on": "IKBα/4-HNE adducts", "experiment": "Immunoprecipitation for IKBα, IKBα/4-HNE adducts, Caco-2", "type": "cell-based, human", "details": "Caco-2, EtOH then 1 mM for 72 h", "method": "The columns were incubated overnight at 4 °C. […] Values were given as RU."}, "COX-2": {"tested_on": "COX-2", "details": "human blood, cited from earlier work"}, "Caco-2 cells [3]": {"tested_on": "Caco-2 cells", "experiment": "DCFDA cellular ROS assay, Caco-2", "type": "cell-based, human", "details": "compared to EtOH challenge alone; Caco-2, 1 mM for 72 h"}, "IKBα": {"tested_on": "IKBα", "experiment": "IKBα protein levels by western blotting, Caco-2", "type": "cell-based, human", "details": "Caco-2, 6% EtOH 24 h then 1 mM for 72 h"}, "Caco-2 cells [4]": {"tested_on": "Caco-2 cells", "experiment": "Morphological analysis of the intestinal barrier (ZO-1 immunofluorescence, phalloidin staining)", "type": "cell-based, human", "details": "Caco-2, 6% EtOH 24 h then 1 mM for 72 h", "method": "Cells were then fixed with 3.7% paraformaldehyde (Sigma, USA) in PBS for 15 min at room temperature and then permeabilized with 0.1% Triton X-100 (Sigma, USA) in PBS for 5 min. After further washes with PBS, phalloidin 1000X (ab176753, Abcam, UK) was diluted to 1X in 1% BSA in PBS, and the cells were incubated for 90 min at room temperature (according to the manufacturer’s instructions). Finally, coverslips were mounted on microscope slides with Vectashield Mounting Medium H2000 with DAPI and cells were observed using a Leica SP5 confocal microscope. For each condition, n = 3, 5 fields/slide were analyzed. A representative picture is shown.\nCells were then treated with 6% EtOH (24 h) and then with 1 mM NSAIDs (72 h). Cells were fixed in 3.7% paraformaldehyde in PBS for 15 min at room temperature, rinsed with PBS, and permeabilized with 0.1% Triton X-100 in PBS for 5 min. After further washes with PBS, cells were incubated for 30 min with BSA 4% in PBS and then incubated overnight at 4 °C with the primary antibody zonulin-1 (ZO-1) (33-910, Thermo Scientific, MA, USA rabbit anti-human, dilution 1:100). […] Finally, coverslips were mounted on microscope slides with Vectashield Mounting Medium with DAPI and cells were observed using a Leica SP5 confocal microscope."}, "4-HNE": {"tested_on": "4-HNE", "experiment": "4-HNE levels by WB, Caco-2", "type": "cell-based, human", "details": "Caco-2, 6% EtOH 24 h then 1 mM for 72 h"}, "[5]": {"tested_on": "Glutathione-S-transferase (GST)", "details": "effect on EtOH-induced decrease; Caco-2, 1 mM for 72 h"}, "Caco-2 cells [6]": {"tested_on": "Caco-2 cells", "details": "effect on EtOH-induced increase; Caco-2, 1 mM for 72 h", "method": "OxyBlot protein oxidation detection kits (S7150, Millipore Company, Burlington, MA, USA) were used according to the manufacturer’s instructions. Briefly, cells were plated (seeding density 3 × 10^5 cells/cm^2) in a complete medium in a T75 flask and cultured for 20 days post-confluence. After 20 days, cells were exposed for 24 h to EtOH (6%) and for 72 h to NSAIDs (1 mM). OxyBlot assay was then performed as previously reported."}, "COX": {"tested_on": "COX", "details": "cited from earlier work"}, "NFkB": {"tested_on": "NFkB", "experiment": "NFkB translocation in LPS-activated RAW 264.7 macrophages", "type": "cell-based, murine", "details": "1 mM for 24 h", "method": "The murine macrophage cell line RAW 264.7 (ATCC TIB-71) was purchased from ATCC, and cells were cultured as indicated by the manufacturer. For the experiment, cells were seeded 10,000/cm^2 for 24 h, starved for 4 h (w/o serum), and activated with lipopolysaccharides (LPS 10 ng/mL for 24 h; Sigma Aldrich, St. Louis, MO, USA). […] RAW 264.7 cells were seeded at 10,000 cells/cm^2 and activated with LPS. […] For both Caco-2 and RAW 264.7 cells, the procedure of extraction of different components was performed as previously reported. The protein fraction extracts were separated on a 10% SDS–polyacrylamide gel and electroblotted onto PVDF. Nonspecific binding sites were blocked by EBB for 5 min. Membranes were then incubated overnight at 4 °C with anti-NFκB and anti-PPARγ. As secondary antibodies, peroxidase-conjugated anti-rabbit, and anti-mouse were used. Bands were detected using Alliance 4.7 UVITEC (Cambridge, UK) and analyzed by ImageJ software. The relative densities of the immunoreactive bands were normalized to anti-Actin or anti-laminin using ImageJ software. Values were given as RU."}, "[7]": {"experiment": "Caco-2 permeability assay (Papp, Ap-Bl)", "type": "in vitro ADME", "details": "human, Caco-2, apical to basolateral", "method": "Papp is the apparent permeability of a compound across a membrane. For drug transport studies, cells were seeded at a density of 3 × 10^5 cells/cm^2 on permeable support with 0.4 µm Transparent PET Membrane in complete medium, cultured and treated as described above.\nDrug transport across Caco-2 monolayers was studied in the Ap–Bl direction, fresh drug and provided to the apical side (donor compartment), and the fresh vehicle was provided to the basolateral side (receiver compartment). For each solution, aliquots of 500 μL were collected immediately after the addition of compounds to the cells (the “time zero”), and after appropriate dilution, an HPLC analysis was performed. At the end of the experiment, after 120 min of incubation, 500 μL of the donor chamber solution was diluted and an HPLC analysis was performed."}},
  "note": "Where two headings read alike, the source gives them in different places.",
  "data": [
    {"compound": "CCO", "note": "[EtOH, Ethanol]", "values": [
      {"measurement": "Secreted IL-8 levels", "setting": "IL-8", "value": "283.9 ± 4.1", "unit": "pg/mL"},
      {"measurement": "Secreted TNF-α levels", "setting": "TNF-α", "value": "20.9 ± 0.7", "unit": "pg/mL"}
    ]},
    {"compound": "CC(C)Cc1ccc(C(C)C(=O)O)cc1", "note": "(stereo not drawn) [Ibuprofen]", "values": [
      {"measurement": "logD", "setting": "[1]; octanol/ISA water", "value": 0.96},
      {"measurement": "logP", "setting": "[1]; octanol/ISA water", "value": "3.91 ± 0.01"},
      {"measurement": "solubility", "setting": "physchem", "value": 0.049, "unit": "mg/mL"},
      {"measurement": "TEER", "setting": "Caco-2 cells [2]", "value": "partial but significant protective activity"},
      {"measurement": "IC50", "setting": "COX-1; ref 23", "value": "[…]"},
      {"measurement": "IC50", "setting": "COX-1; ref 24", "value": "[…]"}
    ]},
    {"compound": "CC(C(=O)O)c1cccc(C(=O)c2ccccc2)c1", "note": "(stereo not drawn) [Ketoprofen, ketoprofen]", "values": [
      {"measurement": "IKBα/4-HNE adduct formation", "setting": "IKBα/4-HNE adducts", "value": "reduced the formation of the adducts"},
      {"measurement": "IC50", "setting": "COX-2; ref 23", "value": 2.9, "unit": "µM"},
      {"measurement": "IC50", "setting": "COX-2; ref 24", "value": 0.88, "unit": "µM"},
      {"measurement": "DCFDA fluorescence intensity (cellular ROS)", "setting": "Caco-2 cells [3]", "value": "more substantial"},
      {"measurement": "logP", "setting": "[1]; octanol/ISA water", "value": "3.05 ± 0.01"},
      {"measurement": "logD", "setting": "[1]", "value": 0.12},
      {"measurement": "IKBα protein levels", "setting": "IKBα", "value": "counteracted the EtOH-induced IKBα decrease"},
      {"measurement": "intestinal barrier integrity (ZO-1 and phalloidin staining)", "setting": "Caco-2 cells [4]", "value": "did not show the ability to protect Caco-2 cells"},
      {"measurement": "IC50", "setting": "COX-1; ref 23", "value": 0.047, "unit": "µM"},
      {"measurement": "IC50", "setting": "COX-1; ref 24", "value": 0.11, "unit": "µM"}
    ]},
    {"compound": "NCCCC[C@H](N)C(=O)O", "note": "[Lys, L-lysine]", "values": [
      {"measurement": "4-HNE levels", "setting": "4-HNE", "value": "not"},
      {"measurement": "IKBα/4-HNE adduct formation", "setting": "IKBα/4-HNE adducts", "value": "not"},
      {"measurement": "GST activity", "setting": "[5]", "value": "not observed"},
      {"measurement": "levels of oxidized proteins (OxyBlot)", "setting": "Caco-2 cells [6]", "value": "did not exhibit direct antioxidant effects"},
      {"measurement": "intestinal barrier integrity (ZO-1 and phalloidin staining)", "setting": "Caco-2 cells [4]", "value": "did not show the ability to protect Caco-2 cells"}
    ]},
    {"compound": "C[C@@H](C(=O)O)c1cccc(C(=O)c2ccccc2)c1", "note": "[R enantiomer, R-Ketoprofen]", "values": [
      {"measurement": "potency as a COX inhibitor", "setting": "COX", "value": "several logs less potent than the S enantiomer"},
      {"measurement": "NFkB translocation", "setting": "NFkB", "value": "inhibited NFkB translocation to the same extent as KLS"},
      {"measurement": "Papp at 120 min", "setting": "[7]; Caco-2, K", "value": "5.79 ± 0.52", "unit": "nm/s"},
      {"measurement": "Papp at 120 min", "setting": "[7]; Caco-2, KLS", "value": "11.9 ± 0.44", "unit": "nm/s"}
    ]},
    {"compound": "C[C@H](C(=O)O)c1cccc(C(=O)c2ccccc2)c1", "note": "[S enantiomer, (S)-ketoprofen]", "values": [
      {"measurement": "NFkB translocation", "setting": "NFkB", "value": "not"},
      {"measurement": "Papp at 120 min", "setting": "[7]; Caco-2, K", "value": "5.76 ± 0.31", "unit": "nm/s"},
      {"measurement": "Papp at 120 min", "setting": "[7]; Caco-2, KLS", "value": "11.9 ± 0.26", "unit": "nm/s"}
    ]}
  ]
}
